Source: publication PMC5814754, “Quantitative, Wide-Spectrum Kinase Profiling in Live Cells for Assessing the Effect of Cellular ATP on Target Engagement” (Cell Chemical Biology, 2018)
Like-named read-outs stand apart in the source and are kept apart here.

What was measured:
Assay in all cases: NanoBRET single-dose fractional occupancy profiling of kinase/Nluc library in live HEK293 cells (Table S1)
Format in all cases: binding
Set-up in all cases: receptor occupancy: dose or concentration left out as unconfirmed; Occupancy, % Replicate 1 / Occupancy, % Replicate 2: unit of the concentration uncertain
178 full-length kinases [1] = molecular target: 178 full-length kinases (Homo sapiens, UniProt O75676); conditions: RPS6KA4 (NP_001287731), Nluc orientation N, probe 5 at 0.1 (unit uncertain); replicate 1
178 full-length kinases [2] = molecular target: 178 full-length kinases (Homo sapiens, UniProt O76039); conditions: CDKL5, Nluc N, probe 5 at 1 (unit uncertain)
178 full-length kinases [3] = molecular target: 178 full-length kinases (Homo sapiens, UniProt O96013); conditions: PAK4, Nluc C, probe 5 at 1 (unit uncertain)
178 full-length kinases [4] = molecular target: 178 full-length kinases (Homo sapiens, UniProt P29597); conditions: TYK2 (NP_003322), Nluc orientation C, probe 5 at 1 (unit uncertain); replicate 1
178 full-length kinases [5] = molecular target: 178 full-length kinases (Homo sapiens, UniProt P36896); conditions: ACVR1B, Nluc C, probe 5 at 1 (unit uncertain)
178 full-length kinases [6] = molecular target: 178 full-length kinases (Homo sapiens, UniProt P42685); conditions: FRK, Nluc C, probe 6 at 0.5 (unit uncertain)
178 full-length kinases [7] = molecular target: 178 full-length kinases (Homo sapiens, UniProt P53779); conditions: JNK3, Nluc C, probe 5 at 1 (unit uncertain)
178 full-length kinases [8] = molecular target: 178 full-length kinases (Homo sapiens, UniProt P78368); conditions: CSNK1G2, Nluc N, probe 5 at 1 (unit uncertain)
178 full-length kinases [9] = molecular target: 178 full-length kinases (Homo sapiens, UniProt Q00532); conditions: CDKL1, Nluc N, probe 1 at 0.1 (unit uncertain)
178 full-length kinases [10] = molecular target: 178 full-length kinases (Homo sapiens, UniProt Q08881); conditions: ITK, Nluc N, probe 5 at 0.01 (unit uncertain)
178 full-length kinases [11] = molecular target: 178 full-length kinases (Homo sapiens, UniProt Q15349); conditions: RPS6KA2 (NP_001305865), Nluc orientation N, probe 5 at 0.5 (unit uncertain)
178 full-length kinases [12] = molecular target: 178 full-length kinases (Homo sapiens, UniProt Q15831); conditions: STK11 (NP_000446), Nluc orientation N, probe 5 at 1 (unit uncertain)
178 full-length kinases [13] = molecular target: 178 full-length kinases (Homo sapiens, UniProt Q5S007); conditions: LRRK2, Nluc C
178 full-length kinases [14] = molecular target: 178 full-length kinases (Homo sapiens, UniProt Q7KZI7); conditions: MARK2, Nluc N, probe 5 at 1 (unit uncertain)
178 full-length kinases [15] = molecular target: 178 full-length kinases (Homo sapiens, UniProt Q8IWQ3); conditions: BRSK2, Nluc N, probe 5 at 0.5 (unit uncertain)
178 full-length kinases [16] = molecular target: 178 full-length kinases (Homo sapiens, UniProt Q8WU08); conditions: STK32A (NP_001106195), Nluc orientation N, probe 5 at 1 (unit uncertain); replicate 2
178 full-length kinases [17] = molecular target: 178 full-length kinases (Homo sapiens, UniProt Q92772); conditions: CDKL2, Nluc N, probe 1 at 0.1 (unit uncertain)
178 full-length kinases [18] = molecular target: 178 full-length kinases (Homo sapiens, UniProt Q9Y2K2); conditions: SIK3 (NP_079440), Nluc orientation N, probe 6 at 1 (unit uncertain)
178 full-length kinases (Homo sapiens, UniProt Q9Y2K2), sequence (Q9Y2K2 whole entry): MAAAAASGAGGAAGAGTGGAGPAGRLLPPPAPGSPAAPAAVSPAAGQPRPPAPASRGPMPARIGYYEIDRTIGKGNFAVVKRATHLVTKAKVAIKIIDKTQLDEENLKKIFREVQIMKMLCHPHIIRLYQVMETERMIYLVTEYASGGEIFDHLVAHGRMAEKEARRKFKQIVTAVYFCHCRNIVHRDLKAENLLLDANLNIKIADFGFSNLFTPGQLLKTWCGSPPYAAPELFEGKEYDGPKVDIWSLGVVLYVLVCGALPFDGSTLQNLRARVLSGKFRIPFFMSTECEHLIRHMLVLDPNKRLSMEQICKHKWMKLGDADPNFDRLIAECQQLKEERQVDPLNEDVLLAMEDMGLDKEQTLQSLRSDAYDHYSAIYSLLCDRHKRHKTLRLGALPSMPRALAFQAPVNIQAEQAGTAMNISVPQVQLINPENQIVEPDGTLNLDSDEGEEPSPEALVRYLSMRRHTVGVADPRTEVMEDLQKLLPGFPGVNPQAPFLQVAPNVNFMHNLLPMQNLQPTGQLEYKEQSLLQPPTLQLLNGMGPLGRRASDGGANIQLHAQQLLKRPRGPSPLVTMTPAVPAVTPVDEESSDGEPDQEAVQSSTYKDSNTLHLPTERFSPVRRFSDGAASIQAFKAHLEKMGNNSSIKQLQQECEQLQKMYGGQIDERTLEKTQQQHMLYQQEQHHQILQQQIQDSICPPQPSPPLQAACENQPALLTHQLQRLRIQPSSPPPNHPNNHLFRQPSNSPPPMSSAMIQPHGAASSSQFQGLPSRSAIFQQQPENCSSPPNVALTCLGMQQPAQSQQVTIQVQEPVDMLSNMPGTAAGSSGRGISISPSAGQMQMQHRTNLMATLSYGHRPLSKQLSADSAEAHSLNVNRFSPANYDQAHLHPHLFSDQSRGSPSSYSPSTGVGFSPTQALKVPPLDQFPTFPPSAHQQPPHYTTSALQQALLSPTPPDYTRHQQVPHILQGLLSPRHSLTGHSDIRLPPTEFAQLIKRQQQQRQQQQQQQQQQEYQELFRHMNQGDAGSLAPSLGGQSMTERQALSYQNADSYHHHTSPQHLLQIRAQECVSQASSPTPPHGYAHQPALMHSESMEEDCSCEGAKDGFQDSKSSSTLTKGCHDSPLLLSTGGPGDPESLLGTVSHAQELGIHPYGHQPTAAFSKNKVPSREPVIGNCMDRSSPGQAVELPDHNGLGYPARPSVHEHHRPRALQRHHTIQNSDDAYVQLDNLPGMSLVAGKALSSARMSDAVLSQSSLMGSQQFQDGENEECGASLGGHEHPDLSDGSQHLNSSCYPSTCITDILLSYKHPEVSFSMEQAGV

178 full-length kinases (Homo sapiens, UniProt Q92772), sequence (Q92772 whole entry): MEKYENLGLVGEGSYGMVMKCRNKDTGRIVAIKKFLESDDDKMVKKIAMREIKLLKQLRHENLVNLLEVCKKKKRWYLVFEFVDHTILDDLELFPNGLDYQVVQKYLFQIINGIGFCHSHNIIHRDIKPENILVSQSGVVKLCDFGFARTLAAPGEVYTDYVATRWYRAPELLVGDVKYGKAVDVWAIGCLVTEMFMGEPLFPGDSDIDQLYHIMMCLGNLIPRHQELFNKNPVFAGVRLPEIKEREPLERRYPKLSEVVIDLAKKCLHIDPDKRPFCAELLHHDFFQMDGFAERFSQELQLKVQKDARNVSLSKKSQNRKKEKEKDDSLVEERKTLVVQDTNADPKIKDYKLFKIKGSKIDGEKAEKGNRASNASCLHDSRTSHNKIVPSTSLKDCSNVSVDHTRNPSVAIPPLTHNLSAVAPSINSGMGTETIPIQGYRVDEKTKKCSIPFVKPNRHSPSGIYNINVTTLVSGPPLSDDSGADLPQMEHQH
178 full-length kinases (Homo sapiens, UniProt Q5S007), sequence (Q5S007 whole entry): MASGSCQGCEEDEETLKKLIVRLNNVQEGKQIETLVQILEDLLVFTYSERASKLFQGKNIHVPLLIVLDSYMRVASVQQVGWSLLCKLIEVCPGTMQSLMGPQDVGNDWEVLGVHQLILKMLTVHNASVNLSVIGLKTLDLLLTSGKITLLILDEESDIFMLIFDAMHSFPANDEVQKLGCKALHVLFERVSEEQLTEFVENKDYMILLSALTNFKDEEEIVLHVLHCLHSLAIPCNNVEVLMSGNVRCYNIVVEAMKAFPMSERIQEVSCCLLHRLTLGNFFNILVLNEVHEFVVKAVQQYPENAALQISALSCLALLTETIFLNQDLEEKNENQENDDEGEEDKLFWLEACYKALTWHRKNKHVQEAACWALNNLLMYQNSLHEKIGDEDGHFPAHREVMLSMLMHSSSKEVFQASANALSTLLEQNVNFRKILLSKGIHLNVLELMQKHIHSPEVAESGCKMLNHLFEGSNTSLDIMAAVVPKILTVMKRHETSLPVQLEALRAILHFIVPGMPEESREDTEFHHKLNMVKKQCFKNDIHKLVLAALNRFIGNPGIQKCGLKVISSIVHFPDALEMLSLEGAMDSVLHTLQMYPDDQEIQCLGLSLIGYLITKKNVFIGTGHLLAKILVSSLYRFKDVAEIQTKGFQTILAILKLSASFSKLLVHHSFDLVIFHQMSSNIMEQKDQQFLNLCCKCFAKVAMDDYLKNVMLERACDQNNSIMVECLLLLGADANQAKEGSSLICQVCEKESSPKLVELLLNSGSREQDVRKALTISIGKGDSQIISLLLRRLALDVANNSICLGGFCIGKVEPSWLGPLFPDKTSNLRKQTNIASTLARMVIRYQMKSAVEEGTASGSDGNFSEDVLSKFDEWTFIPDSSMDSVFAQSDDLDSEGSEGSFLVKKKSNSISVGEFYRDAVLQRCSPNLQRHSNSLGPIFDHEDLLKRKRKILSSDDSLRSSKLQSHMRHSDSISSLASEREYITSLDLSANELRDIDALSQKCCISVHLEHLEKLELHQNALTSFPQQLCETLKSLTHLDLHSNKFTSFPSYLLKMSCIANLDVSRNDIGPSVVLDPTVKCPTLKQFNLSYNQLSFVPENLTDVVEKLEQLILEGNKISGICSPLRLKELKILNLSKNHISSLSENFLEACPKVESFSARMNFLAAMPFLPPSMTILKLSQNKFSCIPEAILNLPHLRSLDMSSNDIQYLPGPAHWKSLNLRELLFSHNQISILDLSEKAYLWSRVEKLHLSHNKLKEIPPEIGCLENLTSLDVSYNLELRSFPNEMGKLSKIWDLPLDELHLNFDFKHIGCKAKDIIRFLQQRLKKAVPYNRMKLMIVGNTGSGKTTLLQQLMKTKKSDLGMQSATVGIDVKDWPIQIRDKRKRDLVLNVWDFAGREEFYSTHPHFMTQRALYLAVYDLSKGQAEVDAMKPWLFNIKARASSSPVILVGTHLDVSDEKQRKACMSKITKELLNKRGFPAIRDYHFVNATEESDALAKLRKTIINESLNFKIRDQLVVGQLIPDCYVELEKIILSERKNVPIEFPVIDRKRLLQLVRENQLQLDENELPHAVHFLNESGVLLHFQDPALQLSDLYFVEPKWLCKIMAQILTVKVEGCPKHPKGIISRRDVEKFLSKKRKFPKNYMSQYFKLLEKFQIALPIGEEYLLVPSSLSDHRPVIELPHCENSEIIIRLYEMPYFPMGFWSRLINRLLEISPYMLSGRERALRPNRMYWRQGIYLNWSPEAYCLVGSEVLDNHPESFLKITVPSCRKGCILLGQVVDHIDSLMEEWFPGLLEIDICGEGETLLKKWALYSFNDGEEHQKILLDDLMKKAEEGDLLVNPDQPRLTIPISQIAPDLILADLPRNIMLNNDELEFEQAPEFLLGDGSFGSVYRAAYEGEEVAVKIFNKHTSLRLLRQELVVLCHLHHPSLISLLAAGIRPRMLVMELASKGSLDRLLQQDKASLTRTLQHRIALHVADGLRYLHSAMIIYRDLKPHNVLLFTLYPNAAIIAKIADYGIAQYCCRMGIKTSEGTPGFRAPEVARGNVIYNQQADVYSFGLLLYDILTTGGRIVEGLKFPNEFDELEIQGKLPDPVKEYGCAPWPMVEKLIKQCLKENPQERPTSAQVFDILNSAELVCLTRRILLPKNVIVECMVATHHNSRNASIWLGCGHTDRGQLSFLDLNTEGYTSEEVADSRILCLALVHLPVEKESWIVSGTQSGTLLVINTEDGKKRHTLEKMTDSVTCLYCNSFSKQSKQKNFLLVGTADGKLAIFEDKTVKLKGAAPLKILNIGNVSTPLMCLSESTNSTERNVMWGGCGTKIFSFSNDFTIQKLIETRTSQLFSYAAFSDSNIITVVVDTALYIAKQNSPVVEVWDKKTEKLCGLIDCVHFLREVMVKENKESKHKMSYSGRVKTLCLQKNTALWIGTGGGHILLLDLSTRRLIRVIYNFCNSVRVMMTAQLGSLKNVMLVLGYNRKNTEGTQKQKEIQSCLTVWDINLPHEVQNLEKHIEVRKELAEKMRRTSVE
178 full-length kinases (Homo sapiens, UniProt Q15831), sequence (Q15831 whole entry): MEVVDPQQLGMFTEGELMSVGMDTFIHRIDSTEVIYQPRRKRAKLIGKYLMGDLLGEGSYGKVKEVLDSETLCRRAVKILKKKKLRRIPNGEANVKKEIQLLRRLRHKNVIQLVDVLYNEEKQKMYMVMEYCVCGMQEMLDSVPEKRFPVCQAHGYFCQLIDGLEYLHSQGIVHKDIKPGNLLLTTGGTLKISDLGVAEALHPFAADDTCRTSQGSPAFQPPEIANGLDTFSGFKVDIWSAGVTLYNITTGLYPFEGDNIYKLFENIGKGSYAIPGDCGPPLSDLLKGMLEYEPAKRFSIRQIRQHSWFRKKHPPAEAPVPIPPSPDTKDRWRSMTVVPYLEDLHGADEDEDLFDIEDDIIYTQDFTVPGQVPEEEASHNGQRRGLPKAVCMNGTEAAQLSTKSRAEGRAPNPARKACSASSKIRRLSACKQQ
178 full-length kinases (Homo sapiens, UniProt Q00532), sequence (Q00532 whole entry): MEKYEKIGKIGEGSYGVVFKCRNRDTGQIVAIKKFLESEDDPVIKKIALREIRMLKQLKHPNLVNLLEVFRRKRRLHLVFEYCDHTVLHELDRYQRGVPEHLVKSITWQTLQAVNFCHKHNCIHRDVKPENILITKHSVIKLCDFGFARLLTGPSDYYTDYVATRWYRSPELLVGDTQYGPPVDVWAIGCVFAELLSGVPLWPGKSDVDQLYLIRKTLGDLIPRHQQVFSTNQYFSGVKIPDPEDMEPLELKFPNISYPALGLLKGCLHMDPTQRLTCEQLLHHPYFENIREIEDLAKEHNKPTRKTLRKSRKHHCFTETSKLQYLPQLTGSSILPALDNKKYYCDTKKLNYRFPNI

C[C@@H](Oc1cc(-c2cnn(C3CCNCC3)c2)cnc1N)c1c(Cl)ccc(F)c1Cl [Crizotinib]
Occupancy, % Replicate 1 (178 full-length kinases [1]): No Binding | Occupancy, % Replicate 1 (178 full-length kinases [2]): No Binding | Occupancy, % Replicate 2 (178 full-length kinases [2]): No Binding | Occupancy, % Replicate 2 (178 full-length kinases [3]): No Binding | Occupancy, % Replicate 1 (178 full-length kinases [4]): No Binding | Occupancy, % Replicate 2 (178 full-length kinases [5]): No Binding | Occupancy, % Replicate 2 (178 full-length kinases [6]): No Binding | Occupancy, % Replicate 1 (178 full-length kinases [7]): No Binding | Occupancy, % Replicate 2 (178 full-length kinases [7]): No Binding | Occupancy, % Replicate 2 (178 full-length kinases [8]): No Binding | Occupancy, % Replicate 1 (178 full-length kinases [9]): No Binding | Occupancy, % Replicate 2 (178 full-length kinases [9]): No Binding | Occupancy, % Replicate 1 (178 full-length kinases [10]): No Binding | Occupancy, % Replicate 1 (178 full-length kinases [11]; replicate 1): No Binding | Occupancy, % Replicate 2 (178 full-length kinases [11]; replicate 2): No Binding | Occupancy, % Replicate 1 (178 full-length kinases [12]; replicate 1): No Binding | Occupancy, % Replicate 2 (178 full-length kinases [12]; replicate 2): No Binding | receptor occupancy (178 full-length kinases [13]; read-out: Occupancy, % Replicate 1): 14% | receptor occupancy (178 full-length kinases [13]; read-out: Occupancy, % Replicate 2): 31% | Occupancy, % Replicate 2 (178 full-length kinases [14]): No Binding | Occupancy, % Replicate 2 (178 full-length kinases [15]): No Binding | Occupancy, % Replicate 2 (178 full-length kinases [16]): No Binding | Occupancy, % Replicate 1 (178 full-length kinases [17]): No Binding | Occupancy, % Replicate 2 (178 full-length kinases [17]): No Binding | Occupancy, % Replicate 1 (178 full-length kinases [18]; replicate 1): No Binding | Occupancy, % Replicate 2 (178 full-length kinases [18]; replicate 2): No Binding
